Source: US10647745B2, “Compound for treating sequelae of ischemic cerebral stroke” (priority 2015, dated 2020)
Residues, ends and D or L forms follow the SMILES beside them.

Tests used:
[1] = system: right cerebral artery ischemia/reperfusion model in rats; test: Neurologic deficit score in rat 1.5-hour ischemia/reperfusion model; type: in vivo, Sprague-Dawley (SD) rats; settings: 3.6 mg/kg i.p. once a day, vs model group without compound
Experimental: (§1) Sprague-Dawley (SD) rats, male, weighing 280-320 g, clean, feeding, conditions: room temperature of 20-25° C., humidity of 30-60%, well ventilated, ad libitum diet; the animals were acclimatized in the feeding environment for three days prior to the experiment.
(§2) The rats were anesthetized with 4% chloral hydrate (350 mg/kg, ip.) and then were fixed in a supine position. A midline ventral neck incision was made, the right common carotid artery was separated and snared with two sutures for further use. Then, the internal carotid artery and external carotid artery were separated, and the external carotid artery was ligatured. The separated common carotid artery was ligatured at its proximal end with a thread, and the blood flow of the same was blocked at its distal end with a bulldog clamp. A small opening was cut therebetween and a nylon suture (4-0) which is heated at one end into a bead-like shape (having a diameter of <0.3 mm) was inserted into the small opening. […]
Neurologic deficit scores were assessed for the above experimental animals according to the following procedure before the beginning of experiment and 24 hours, 1 day, 3 days, 7 days, 14 days, 28 days, 56 days, and 112 days after the beginning of experiment; Score rules: see Zea Longer score and NSS score, full score of 10; […]

[2] = Body weight of rats in 1.5-hour ischemia/reperfusion model; type: in vivo, Sprague-Dawley (SD) rats; settings: 3.6 mg/kg i.p. once a day
Experimental: as §1
as §2, with “opening. The bulldog clamp was removed, and the nylon suture was gently advanced to the origin of the anterior cerebral artery (18-20 mm), thereby causing arterial ischemia in brain by blocking the blood supply of the cerebral artery. The skin was sutured and was sterilized with tincture of iodine.” for “opening.”

Q: Which results are given for `CC(C)CC(NC(=O)C(CCC(N)=O)NC(=O)C(NC(=O)C(CO)NC(=O)C(Cc1c[nH]cn1)NC(=O)C(N)C(C)C)C(C)C)C(=O)NC(Cc1ccc(O)cc1)C(=O)O` (stereo not shown) [compound of formula (III)] (H-VHSVQLY-OH; configuration not given here)?
A: neuroethology score (neurologic deficit score) ([1]; I1.5R+1 week+dosing for 4 weeks, statistically significant in 2nd, 3rd, 4th, 5th and 7th week after operation): gradually declined neuroethology score; neurological scores ([1]; I1.5R+2 weeks+dosing for 4 weeks, statistically significant at fifth week after operation): declined from the beginning of the administration; weight ([2]; I1.5R+1 week+dosing for 4 weeks, vs model group without compound): gradually increased weight; weight ([2]; I1.5R+2 weeks+dosing for 4 weeks, vs model group, weight data said not demonstrative (groups differed before dosing)): gradually increased weight
